This is an account of results in patent US7745455B2 (priority 2005, dated 2010).

Where “and” joins values, the source holds several entries; their conditions need not be identical. Equal entries are not always repeated.

One data set relates to CD4+. As to the kind of experiment: CD4+ count in treated patients (immunological data). It is filed as in vivo, human. Particulars: individual patients by date; 3TC lines = before ddC was started.
Data set [1] concerns HIV. Particulars: 300 mg instead of 150 mg; cited from earlier work.
In data set [2] the test system is HIV. The format is in vivo. Particulars: individual patients by date; 3TC lines = before ddC was started.
In another data set the test system is ddC phosphorylation. Particulars: in vitro, identical concentration ratios of 10 to 100 μM; cited from earlier work.
For a further data set, the system named is 3TC-TP formation. Particulars: in vitro; cited from earlier work.
The conditions of data set [3]: human, in vivo; cited from earlier work.
Data set [4] is described as follows: Plasmatic 3TC levels in patients with or without ddC-boosted 3TC treatment. It is filed as in vivo, human. Particulars: individual HIV patients, one line per patient and date, 3TC with low dose ddC or without ddC.
Experimental: It should be noted that for the plasma levels, the peak (post-dose) was at about 2 hours of the drug administration: this is not the case with intracellular triphosphate concentrations where the peaks might occur later than 2 hours post drug administration.
The test system of data set [5] is HIV. Particulars: cited from earlier work.
For data set [6] the following is noted: human, in vivo; cited from earlier work. This is another data set of the same source.
The next data set concerns 3TC phosphorylation. Particulars: in vitro, at extremely high ddC concentrations (10 to 100 higher than those of 3TC); cited from earlier work.

In the case of `Nc1ccn([C@@H]2CS[C@H](CO)O2)c(=O)n1` [3TC, 2′ deoxy-3′-thiacytidine], the “CD4+” value with CD4+ was 180 and 760 and 220 and 770. For the same compound, the “effect of increased dose on 3TC-TP levels” value in the data set with HIV [1] was “did not significantly increased the 3TC-TP levels”. The Viral load with HIV [2] is 291 392 ^ and 1 344 ^ and 124 and 445. For the same compound, the “inhibition of ddC phosphorylation” value in the data set on ddC phosphorylation is recorded as “inhibited ddC phosphorylation in a concentration-dependent manner”. Moreover, the “extracellular concentration at which 3TC-TP formation is saturated” value in the data set with 3TC-TP formation was 10 µM. In data set [3], the “3TC-TP levels reported in the literature” value is given as 1-5 μmol/10^6 PBMC. For the same compound, the concentration at 2 h in [4] (human, in vivo, 3TC plasma levels 2 h post dose) was 700 ng/mL. Also, in data set [4], the “3TC plasma levels 2 h post dose” value was 779 ng/ml and 1 057 ng/ml; the “3TC plasma levels Pre-dose” value is 143 ng/ml and 35 ng/ml (2×).

For `Nc1ccn([C@H]2CC[C@@H](CO)O2)c(=O)n1` [ddC, 2′-3′-dideoxycytidine], in the data set with HIV [5], the “concentration needed for antiretroviral activity (in vivo toxicity index)” value is 0.1 µM and the “toxic concentration (in vivo toxicity index)” value was 0.2 µM. Besides, the plasma levels in [6] was 500 to 1500 nM. Besides, the “inhibition of 3TC phosphorylation” value with 3TC phosphorylation is listed as “did inhibit in vitro 3TC phosphorylation”.
